Assays:
Format in all cases: cell-based
SW480 colon cancer cells = test: Cell viability assay (CellTiter-Blue), SW480 colon cancer cells; details: Homo sapiens, 96 h, four days, CellTiter-Blue
Method: Representative compounds were screened using the following assay procedure to assess the effect on cell viability as described below.
Each compound was dissolved in DMSO as a 10 mM stock and used to prepare compound source plates. Serial dilution (1:3, 8-point dose-response curves from 10 μM to 0.0045 μM) and compound transfer was performed using the ECHO 550 (Labcyte, Sunnyvale, Calif.) into 96-well clear bottom, black-walled plates (Corning—Costar).
Approximately 2×10^3 SW480 colon cancer cells were seeded into each well and allowed to incubate in the presence or absence of compound for four days at 37° C./5% CO2. Eight replicates of DMSO-treated cells served as controls and cells treated with compound were performed in duplicate.
After incubation, 20 μL of CellTiter-Blue (Promega) was added to each well allowed to incubate for approximately 3 hours. This reagent was a buffered solution which contains resazurin, metabolically active cells were able to reduce rezarurin (blue) into resorufin (pink) which was highly fluorescent. This measured fluorescence was used as a readout for cell viability.
After incubation, the plates were read at Ex 560 nm Em 590 nm (Cytation 3, BioTek). Dose-response curves were generated and EC50 concentration values were calculated using non-linear regression curve fit in the GraphPad Prism (San Diego, Calif.) or Dotmatics' Studies Software (Bishops Stortford, UK). For EC50 of >10 μM, the percent inhibition at 10 μM is provided.

IL-6 (THP-1 cells) = test: IL-6 inhibition in LPS-stimulated THP-1 human monocyte cells (HTRF); details: LPS 500 ng/mL, 22 hours, IL6 HTRF
Method: Human monocyte cell line (THP-1 cells; Catalog # TIB-202, ATCC, Manassas, Va.) were cultured in Roswell Park Memorial Institute (RPMI) 1640 Medium (Catalog #21870-100, Buffalo, N.Y.) with 1% L-glutamine, 1% HEPES, 1% Sodium Pyruvate, 2% Sodium Bicarbonate supplemented with 100 units/mL penicillin, 50 μg/mL streptomycin, 2-mercaptoethanol (0.05 mM) [basal medium] and 10% fetal bovine serum (Catalog #16140089, Life Technologies, Carlsbad, Calif.) at 37° C. and 5% CO2.
THP-1 cells were cultured in basal media with 1% FBS for 24 hours before the start of the assay. Each compound was dissolved in DMSO as a 10 mM stock and used to prepare compound source plates. Serial dilution (1:3, 10-point dose-response curves starting from 10 μM) and compound transfer was performed using the ECHO 550 (Labcyte, Sunnyvale, Calif.) into 384-well white low volume assay plates (Greiner Bio-One) with appropriate DMSO backfill for a final DMSO concentration of 0.1%. THP-1 cells were plated at 5000 cells/well in the 384-well plates and incubated at 37° C. for 2 h. 500 ng/mL of LPS was added after 2 hours and cells were incubated for another 22 hours at 37° C. Plates were spun in a centrifuge for 1 minute at […] and a mixture of anti-IL6 XL665, and anti-IL6 Cryptate diluted in reconstitution buffer (Cisbio Inc.) was added to each well. Following incubation for 3 hrs at room temperature, Homogeneous Time-Resolved Fluorescence (HTRF) was measured using the Envision (Perkin Elmer) at 665 nm and […]. The ratio of fluorescence at 665 nm to 620 nm was used as a readout for IL6 quantification. All samples were processed in duplicate. Readings were normalized to DMSO treated cells and normalized activities were utilized for EC50 calculations using the dose-response log (inhibitor) vs. response-variable slope (four parameters) nonlinear regression feature available in GraphPad Prism 5.0 (or Dotmatics). For EC50 of >10 μM, the percent inhibition at 10 μM is provided.

[1] = tested on: primary human fibroblasts derived from IPF patients (LL29 cells) treated with TGF-β1; test: Inhibition of the fibrotic process: αSMA staining in TGF-β1 treated primary human fibroblasts from IPF patients (LL29 cells); details: Fibroblast, 96 h, TGF-β1 20 ng/mL, 4 days, % αSMA positive cells
Source text: Representative compounds were screened using primary human fibroblasts (derived from IPF patients) treated with TGF-β1 to determine their ability to inhibit the fibrotic process.
Primary human fibroblasts derived from IPF patients (LL29 cells) [^1Xiaoqiu Liu, et. al., “Fibrotic Lung Fibroblasts Show Blunted Inhibition by cAMP Due to Deficient cAMP Response Element-Binding Protein Phosphorylation”, Journal of Pharmacology and Experimental Therapeutics (2005), 315(2), 678-687; ^2Watts, K. L., et. al., “RhoA signaling modulates cyclin D1 expression in human lung fibroblasts; implications for idiopathic pulmonary fibrosis”, Respiratory Research (2006), 7(1), 88] were obtained from American Type Culture Collection (ATCC) and expanded in F12 medium supplemented with 15% Fetal Bovine Serum and Penicillin/Streptomycin.
Each compound was dissolved in DMSO as a 10 mM stock and used to prepare compound source plates. Serial dilution (1:2, 11-point dose-response curves from 10 μM to 1.87 nM) and compound transfer was performed using the ECHO 550 (Labcyte, Sunnyvale, Calif.) into 384-well clear bottom assay plates (Greiner Bio-One) with appropriate DMSO backfill for a final DMSO concentration of 0.1%. LL29 cells are plated at 1,500 cells/well in 80 μL/well F12 medium supplemented with 1% Fetal Bovine Serum. One hour after addition of the cells, TGF-β1 (Peprotech; 20 ng/mL) was added to the plates to induce fibrosis (ref. 1 and 2 above). Wells treated with TGF-β1 and containing DMSO were used as controls. Cells were incubated at 37° C. and 5% CO2 for 4 days. Following incubation for 4 days, SYTOX green nucleic acid stain (Life Technologies [Thermo Fisher Scientific]) was added to the wells at a final concentration of 1 μM and incubated at room temperature for 30 min. Cells were then fixed using 4% formaldehyde (Electron Microscopy Sciences), washed 3 times with PBS followed by blocking and permeabilization using 3% Bovine Serum Albumin (BSA; Sigma) and 0.3% Triton X-100 (Sigma) in PBS. Cells were then stained with antibody specific to α-smooth muscle actin (αSMA; Abcam) (ref. 1 and 2 above) in 3% Bovine Serum Albumin (BSA; Sigma) and 0.3% Triton X-100 (Sigma) in PBS, and incubated overnight at 4° C. Cells were then washed 3 times with PBS, followed by incubation with Alexa Flor-647 conjugated secondary antibody (Life Technologies [Thermo Fisher Scientific]) and DAPI at room temperature for 1 hour. Cells were then washed 3 times with PBS and plates were sealed for imaging. αSMA staining was imaged by excitation at 630 nm and emission at 665 nm and quantified using the Compartmental Analysis program on the CellInsight CX5 (Thermo Scientific). Dead or apoptotic cells were excluded from analysis based on positive SYTOX green staining. % of total cells positive for αSMA were counted in each well and normalized to the average of 11 wells treated with TGF-β1 on the same plate using Dotmatics' Studies Software. The normalized averages (fold change over untreated) of 3 replicate wells for each compound concentration were used to create dose-responses curves and EC50 values were calculated using non-linear regression curve fit in the Dotmatics' Studies Software. For EC50 of >10 μM, the percent inhibition at 10 μM is provided.

[2] = tested on: Wnt activity (Sp5-Luc reporter, SW480 colon carcinoma cells); test: Wnt activity screening assay: Sp5-Luc reporter gene in SW480 colon carcinoma cells; details: Homo sapiens, overnight incubation, 10-point curve from 10 μM
Source text: The screening assay for Wnt activity is described as follows. Reporter cell lines can be generated by stably transducing cancer cell lines (e.g., colon cancer) or primary cells (e.g., IEC-6 intestinal cells) with a lentiviral construct that includes a Wnt-responsive promoter driving expression of the firefly luciferase gene.
SW480 colon carcinoma cells were transduced with a lentiviral vector expressing luciferase with a human Sp5 promoter consisting of a sequence of eight TCF/LEF binding sites. SW480 cells stably expressing the Sp5-Luc reporter gene and a hygromycin resistance gene were selected by treatment with 150 μg/mL of hygromycin for 7 days. These stably transduced SW480 cells were expanded in cell culture and used for all further screening activities. Each compound was dissolved in DMSO as a 10 mM stock and used to prepare compound source plates. Serial dilution (1:3, 10-point dose-response curves starting from 10 μM) and compound transfer was performed using the ECHO 550 (Labcyte, Sunnyvale, Calif.) into 384-well white solid bottom assay plates (Greiner Bio-One) with appropriate DMSO backfill for a final DMSO concentration of 0.1%. For Sp5-Luc reporter gene assays, the cells were plated at 4,000 cells/well in 384-well plates with medium containing 1% fetal bovine serum and incubated overnight at 37° C. and 5% CO2. Following incubation, 20 μl of BrightGlo luminescence reagent (Promega) was added to each well of the 384-well assay plates. The plates were placed on an orbital shaker for 2 min and then luminescence was quantified using the Envision (Perkin Elmer) plate reader. Readings were normalized to DMSO only treated cells, and normalized activities were utilized for EC50 calculations using the dose-response log (inhibitor) vs. response-variable slope (four parameters) nonlinear regression feature available in GraphPad Prism 5.0 (or Dotmatics). For EC50 of >10 μM, the percent inhibition at 10 μM is provided.

Structure (SMILES) | EC50 (SW480 colon cancer cells) [nM] | EC50 (IL-6 (THP-1 cells)) [nM] | EC50 [2] [nM] | EC50 [1] [nM]
Fc1cccc(-c2cccc3[nH]c(-c4n[nH]c5ccc(-c6cncc(CN7CCC(F)(F)C7)c6)nc45)cc23)c1 [Compound 26, 5-(5-((3,3-Difluoropyrrolidin-1-yl)methyl)pyridin-3-yl)-3-(4-(3-fluorophenyl)-1H-indol-2-yl)-1H-pyrazolo[4,3-b]pyridine] | 3110 | 530 | 981 | 409
CN1CCN(c2cccc3[nH]c(-c4n[nH]c5ccc(-c6cncc(NC(=O)CC(C)(C)C)c6)nc45)cc23)CC1 [Compound 240, 3,3-Dimethyl-N-(5-(3-(4-(4-methylpiperazin-1-yl)-1H-indol-2-yl)-1H-pyrazolo[4,3-b]pyridin-5-yl)pyridin-3-yl)butanamide] | 1840 | 244 | 2980 | 1750
CC(C)CC(=O)Nc1cncc(-c2ccc3[nH]nc(-c4cc5c(N6CCN(C)CC6)cccc5[nH]4)c3n2)c1 [Compound 226, 3-Methyl-N-(5-(3-(4-(4-methylpiperazin-1-yl)-1H-indol-2-yl)-1H-pyrazolo [4,3-b]pyridin-5-yl)pyridin-3-yl)butanamide] | 1930 | 359 | 2140 | 2550
CCCCC(=O)Nc1cncc(-c2ccc3[nH]nc(-c4cc5ncccc5[nH]4)c3n2)c1 [Compound 523, N-(5-(3-(1H-Pyrrolo[3,2-b]pyridin-2-yl)-1H-pyrazolo[4,3-b]pyridin-5-yl)pyridin-3-yl)pentanamide] | 943 | 20 | 550 | 697
c1cc(N2CCCCC2)c2cc(-c3n[nH]c4ccc(-c5cncnc5)nc34)[nH]c2c1 [Compound 195, 3-(4-(Piperidin-1-yl)-1H-indol-2-yl)-5-(pyrimidin-5-yl)-1H-pyrazolo[4,3-b] pyridine] | 5590 | 31 | 1180 | 1280

Second part, led by results:

EC50 (SW480 colon cancer cells) [nM] | EC50 (IL-6 (THP-1 cells)) [nM] | EC50 [2] [nM] | Structure (SMILES) | EC50 [1] [nM]
6740 | 388 | 1020 | Cc1ccncc1-c1ccc2[nH]nc(-c3cc4c(-c5ccc(F)cc5)cccc4[nH]3)c2n1 [Compound 33, 3-(4-(4-Fluorophenyl)-1H-indol-2-yl)-5-(4-methylpyridin-3-yl)-1H-pyrazolo [4,3-b]pyridine] | 1230
604 | 75 | 107 | CC(C)Nc1cncc(-c2ccc3[nH]nc(-c4cc5c(-c6cccnc6)cccc5[nH]4)c3n2)c1 [Compound 96, N-Isopropyl-5-(3-(4-(pyridin-3-yl)-1H-indol-2-yl)-1H-pyrazolo[4,3-b]pyridin-5-yl)pyridin-3-amine] | 214

Reference: patent publication US10226453B2, “3-(1H-indol-2-yl)-1H-pyrazolo[4,3-B]pyridines and therapeutic uses thereof” (Samumed, LLC, priority 2015, dated 2019)
